This note sets out measurements from patent US6740642B2, “Macrolides with antibacterial activity” (BAsilea Parmaceutica AG, priority 2000, dated 2004).

SMILES strings stand for the structures. In brackets after ≈: the same amount, converted by molar mass.

Assay in all cases: MIC, standard microdilution
For orientation: Dilution methods test growth across graded concentrations, often in twofold steps.

In assay [1] the test system is P. aeruginosa ATCC27853 (+Ery. 32 μg/ml). It is filed as cell-based. An excerpt: (§1) The antibacterial activities of the compounds have been determined by standard microdilution technique (National Committee for Clinical Laboratory Standards. 1997. Methods for dilution antimicrobial susceptibility tests for bacteria that grow aerobically, 4th edition. Approved standard M7-A4. National Committee for Clinical Laboratory Standards, Wayne, Pa.).

In a further assay the test system is E. coli ATCC25922. It is filed as cell-based. The note with it: for MIC: Escherichia coli, read-out: minimum inhibitory concentration (MIC).
Text: as §1

Another assay has as its system St. pneumoniae 1/4. The format is cell-based, Streptococcus pneumoniae. The note with it: for MIC: Streptococcus pneumoniae, read-out: minimum inhibitory concentration (MIC).
Text: as §1

The test system of the next assay is St. pneumoniae SL199T. The format is cell-based, Streptococcus pneumoniae. The note with it: for MIC: Streptococcus pneumoniae, read-out: minimum inhibitory concentration (MIC).
Text: as §1

Another assay relates to St. pneumoniae 12288. It is filed as cell-based, Streptococcus pneumoniae. The note with it: for MIC: Streptococcus pneumoniae, read-out: minimum inhibitory concentration (MIC).
Text: as §1

The subject of another assay is St. pneumoniae 1/1. The format is cell-based, Streptococcus pneumoniae. The note with it: for MIC: Streptococcus pneumoniae, read-out: minimum inhibitory concentration (MIC).
Text: as §1

For the next assay, the system named is S. aureus 745. The format is cell-based, Staphylococcus aureus. The note with it: for MIC: Staphylococcus aureus, read-out: minimum inhibitory concentration (MIC).
Text: as §1

A further assay relates to S. aureus 1086. The format is cell-based, Staphylococcus aureus. The note with it: for MIC: Staphylococcus aureus, read-out: minimum inhibitory concentration (MIC).
Text: as §1

Another assay deals with S. aureus ATCC29213. It is filed as cell-based, Staphylococcus aureus. The note with it: for MIC: Staphylococcus aureus, read-out: minimum inhibitory concentration (MIC).
Text: as §1

`CC[C@H]1OC(=O)[C@H](C)C(=O)[C@H](C)[C@@H](O[C@@H]2O[C@H](C)C[C@H](N(C)C)[C@H]2O)[C@](C)(OC)C[C@@H](C)C(=O)[C@H](C)[C@H]2[C@H](SCCc3ccccc3)C(=O)O[C@@]21C` [Compound I-1, (3S,3aR,4R,6R,8R,9R,10R,12R,15R,15aS)-15-Ethyloctahydro-8-methoxy-4,6,8,10,12,15a-hexamethyl-3-[[2-phenylethyl]thio]-9-[[3,4,6-trideoxy-3-(dimethylamino)-β-D-xylo-hexopyranosyl]oxy]-2H-furo[2,3-c]oxacyclotetradecin-2,5,11,13(3H,6H,12H)-tetrone]: in assay [1], the “minimum inhibitory concentration (MIC)” value was >16 µg/mL. In addition, the MIC with E. coli ATCC25922 was > 16 µg/mL; in the assay with St. pneumoniae 1/4, 1 µg/mL (≈ 1.34 µM); in the assay with St. pneumoniae SL199T it was 4 µg/mL (≈ 5.35 µM); in the assay on St. pneumoniae 12288, 32 µg/mL (≈ 42.8 µM); in the assay on St. pneumoniae 1/1, ≤ 0.5 µg/mL; in the assay with S. aureus 745, > 16 µg/mL. The MIC in the assay on S. aureus 1086 and in the assay with S. aureus ATCC29213 was ≤ 0.25 µg/mL in each case.
Consider `CC[C@H]1OC(=O)[C@H](C)C(=O)[C@H](C)[C@@H](O[C@@H]2O[C@H](C)C[C@H](N(C)C)[C@H]2O)[C@](C)(OC)C[C@@H](C)C(=O)[C@H](C)[C@H]2[C@H](Sc3ccccc3)C(=O)O[C@@]21C` [Compound I-3, (3S,3aR,4R,6R,8R,9R,10R,12R,15R,15aS)-15-Ethyloctahydro-8-methoxy-4,6,8,10,12,15a-hexamethyl-3-[phenylthio]-9-[[3,4,6-trideoxy-3-(dimethylamino)-β-D-xylo-hexopyranosyl]oxy]-2H-furo[2,3-c]oxacyclotetradecin-2,5,11,13(3H,6H,12H)-tetrone], for which the “minimum inhibitory concentration (MIC)” value in assay [1] was >16 µg/mL. The MIC in the assay on E. coli ATCC25922 is > 16 µg/mL; in the assay on St. pneumoniae 1/4, 2 µg/mL (≈ 2.78 µM); in the assay on St. pneumoniae SL199T, 16 µg/mL (≈ 22.2 µM); in the assay on St. pneumoniae 12288, 16 µg/mL (≈ 22.2 µM); in the assay on St. pneumoniae 1/1, ≤ 0.5 µg/mL; in the assay on S. aureus 745, > 16 µg/mL. The MIC in the assay with S. aureus 1086 and with S. aureus ATCC29213 was 0.5 µg/mL (≈ 0.695 µM) in each case.
For the molecule `CC[C@H]1OC(=O)[C@H](C)C(=O)[C@H](C)[C@@H](O[C@@H]2O[C@H](C)C[C@H](N(C)C)[C@H]2O)[C@](C)(OC)C[C@@H](C)C(=O)[C@H](C)[C@H]2[C@H](SCc3ccccc3)C(=O)O[C@@]21C` [Compound I-4, (3S,3aR,4R,6R,8R,9R,10R,12R,15R,15aS)-15-Ethyloctahydro-8-methoxy-4,6,8,10,12,15a-hexamethyl-3-[(phenylmethyl)thio]-9-[[3,4,6-trideoxy-3-(dimethylamino)-β-D-xylo-hexopyranosyl]oxy]-2H-furo[2,3-c]oxacyclotetradecin-2,5,11,13(3H,6H,12H)-tetrone], in [1], the “minimum inhibitory concentration (MIC)” value is >16 µg/mL. The MIC with E. coli ATCC25922 is > 16 µg/mL; with St. pneumoniae 1/4 it was 8 µg/mL (≈ 10.9 µM); in the assay with St. pneumoniae SL199T, 16 µg/mL (≈ 21.8 µM); in the assay with St. pneumoniae 12288, 16 µg/mL (≈ 21.8 µM); in the assay on St. pneumoniae 1/1, ≤ 0.5 µg/mL; in the assay on S. aureus 745, > 16 µg/mL. Besides, the MIC in the assay on S. aureus 1086 and in the assay with S. aureus ATCC29213 was 1 µg/mL (≈ 1.36 µM) throughout.
As to `CC[C@H]1OC(=O)[C@H](C)C(=O)[C@H](C)[C@@H](O[C@@H]2O[C@H](C)C[C@H](N(C)C)[C@H]2O)[C@](C)(OC)C[C@@H](C)C(=O)[C@H](C)[C@H]2[C@H](SC)C(=O)O[C@@]21C` [Compound I-5, (3S,3aR,4R,6R,8R,9R,10R,12R,15R,15aS)-15-Ethyloctahydro-8-methoxy-4,6,8,10,12,15a-hexamethyl-3-[methylthio]-9-[[3,4,6-trideoxy-3-(dimethylamino)-β-D-xylo-hexopyranosyl]oxy]-2H-furo[2,3-c]oxacydotetradecin-2,5,11,13(3H,6H,12H)-tetrone], the “minimum inhibitory concentration (MIC)” value in assay [1] was >16 µg/mL; with E. coli ATCC25922 it was >16 µg/mL; in the assay with St. pneumoniae 1/4, 32 µg/mL (≈ 48.6 µM); in the assay on St. pneumoniae SL199T it was 16 µg/mL (≈ 24.3 µM); in the assay on St. pneumoniae 12288, >32 µg/mL; in the assay on St. pneumoniae 1/1 it was “<=0.5 μg/ml”. Further, the “minimum inhibitory concentration (MIC)” value in the assay with S. aureus 745 was >16 µg/mL; in the assay on S. aureus 1086 it was 0.5 µg/mL (≈ 0.76 µM); in the assay with S. aureus ATCC29213, 0.5 µg/mL (≈ 0.76 µM).
Regarding `CC[C@H]1OC(=O)[C@H](C)C(=O)[C@H](C)[C@@H](O[C@@H]2O[C@H](C)C[C@H](N(C)C)[C@H]2O)[C@](C)(OC)C[C@@H](C)C(=O)[C@H](C)[C@H]2[C@H](SCCCc3ccccn3)C(=O)O[C@@]21C` [Compound I-10, (3S,3aR,4R,6R,8R,9R,10R,12R,15R,15aS)-15-Ethyloctahydro-8-methoxy-4,6,8,10,12,15a-hexamethyl-3-[[3-(2-pyridinyl)propyl]thio]-9-[[3,4,6-trideoxy-3-(dimethylamino)-β-D-xylo-hexopyranosyl]oxy]-2H-furo[2,3-c]oxacyclotetradecin-2,5,11,13(3H,6H,12H)-tetrone], in assay [1], the “minimum inhibitory concentration (MIC)” value was >16 µg/mL. Further, the MIC with E. coli ATCC25922 was > 16 µg/mL; in the assay on St. pneumoniae 1/4, 0.25 µg/mL (≈ 0.328 µM); in the assay with St. pneumoniae SL199T, 2 µg/mL (≈ 2.62 µM); in the assay with St. pneumoniae 12288, 8 µg/mL (≈ 10.5 µM); in the assay on St. pneumoniae 1/1, ≤ 0.12 µg/mL; in the assay on S. aureus 745 it was > 16 µg/mL. The MIC with S. aureus 1086 and in the assay on S. aureus ATCC29213 was ≤ 0.12 µg/mL each time.
Regarding `CC[C@H]1OC(=O)[C@H](C)C(=O)[C@H](C)[C@@H](O[C@@H]2O[C@H](C)C[C@H](N(C)C)[C@H]2O)[C@](C)(OC)C[C@@H](C)C(=O)[C@H](C)[C@H]2[C@H](SCCOc3ccccc3)C(=O)O[C@@]21C` [Compound I-11, (3S,3aR,4R,6R,8R,9R,10R,12R,15R,15aS)-15-Ethyloctahydro-8-methoxy-4,6,8,10,12,15a-hexamethyl-3-[[2-phenoxyethyl]thio]-9-[[3,4,6-trideoxy-3-(dimethylamino)-β-D-xylo-hexopyranosyl]oxy]-2H-furo[2,3-c]oxacyclotetradecin-2,5,11,13(3H,6H,12H)-tetrone], the “minimum inhibitory concentration (MIC)” value in [1] is >16 µg/mL. Further, the MIC in the assay on E. coli ATCC25922 is > 16 µg/mL; in the assay on St. pneumoniae 1/4, 4 µg/mL (≈ 5.24 µM); in the assay with St. pneumoniae SL199T it was 4 µg/mL (≈ 5.24 µM); with St. pneumoniae 12288 it was 8 µg/mL (≈ 10.5 µM); in the assay with St. pneumoniae 1/1 it was ≤ 0.5 µg/mL; in the assay with S. aureus 745, > 16 µg/mL. Also, the MIC in the assay on S. aureus 1086 and in the assay with S. aureus ATCC29213 was ≤ 0.25 µg/mL throughout.
As to `CC[C@H]1OC(=O)[C@H](C)C(=O)[C@H](C)[C@@H](O[C@@H]2O[C@H](C)C[C@H](N(C)C)[C@H]2O)[C@](C)(OC)C[C@@H](C)C(=O)[C@H](C)[C@H]2[C@H](Sc3ccc(OC)c(OC)c3)C(=O)O[C@@]21C` [Compound I-12], the “minimum inhibitory concentration (MIC)” value in [1] is >16 µg/mL; in the assay with E. coli ATCC25922 it was >16 µg/mL; in the assay on St. pneumoniae 1/4 it was 1 µg/mL (≈ 1.28 µM); in the assay with St. pneumoniae SL199T it was 8 µg/mL (≈ 10.3 µM); in the assay with St. pneumoniae 12288 it was 16 µg/mL (≈ 20.5 µM); in the assay on St. pneumoniae 1/1, “<=0.5 μg/ml”. The “minimum inhibitory concentration (MIC)” value is >16 µg/mL in the assay on S. aureus 745, 0.5 µg/mL (≈ 0.641 µM) in the assay with S. aureus 1086 and 0.5 µg/mL (≈ 0.641 µM) with S. aureus ATCC29213.
`CC[C@H]1OC(=O)[C@H](C)C(=O)[C@H](C)[C@@H](O[C@@H]2O[C@H](C)C[C@H](N(C)C)[C@H]2O)[C@](C)(OC)C[C@@H](C)C(=O)[C@H](C)[C@H]2[C@H](SCCc3ccccn3)C(=O)O[C@@]21C` [Compound I-13, (3S,3aR,4R,6R,8R,9R,10R,12R,15R,15aS)-15-Ethyloctahydro-8-methoxy-4,6,8,10,12,15a-hexamethyl-3-[[2-(2-pyridinyl)ethyl]thio]-9-[[3,4,6-trideoxy-3-(dimethylamino)-β-D-xylo-hexopyranosyl]oxy]-2H-furo[2,3-c]oxacyclotetradecin-2,5,11,13(3H,6H,12H)-tetrone]: the “minimum inhibitory concentration (MIC)” value in [1] is >16 µg/mL. The MIC in the assay with E. coli ATCC25922 was 16 µg/mL (≈ 21.4 µM); in the assay on St. pneumoniae 1/4, 1 µg/mL (≈ 1.34 µM); in the assay on St. pneumoniae SL199T, 2 µg/mL (≈ 2.67 µM); in the assay on St. pneumoniae 12288, 8 µg/mL (≈ 10.7 µM); in the assay on St. pneumoniae 1/1 it was ≤ 0.5 µg/mL; with S. aureus 745, > 16 µg/mL. Besides, the MIC in the assay with S. aureus 1086 and in the assay with S. aureus ATCC29213 was ≤ 0.25 µg/mL each time.
As to `CC[C@H]1OC(=O)[C@H](C)C(=O)[C@H](C)[C@@H](O[C@@H]2O[C@H](C)C[C@H](N(C)C)[C@H]2O)[C@](C)(OC)C[C@@H](C)C(=O)[C@H](C)[C@H]2[C@H](SCCn3cnc(-c4cccnc4)n3)C(=O)O[C@@]21C` [Compound I-17, (3S,3aR,4R,6R,8R,9R,10R,12R,15R,15aS)-15-Ethyloctahydro-8-methoxy-4,6,8,10,12,15a-hexamethyl-3-[[2-[3-(3-pyridinyl)-1H-1,2,4-triazol-1-yl]ethyl]thio]-9-[[3,4,6-trideoxy-3-(dimethylamino)-β-D-xylo-hexopyranosyl]oxy]-2H-furo[2,3-c]oxacyclotetradecin-2,5,11,13(3H,6H,12H)-tetrone], the “minimum inhibitory concentration (MIC)” value in assay [1] was >16 µg/mL. Moreover, the MIC is > 16 µg/mL in the assay with E. coli ATCC25922; ≤ 0.12 µg/mL in the assay on St. pneumoniae 1/4; 1 µg/mL (≈ 1.23 µM) in the assay on St. pneumoniae SL199T; ≤ 0.12 µg/mL with St. pneumoniae 1/1; > 16 µg/mL with S. aureus 745; ≤ 0.12 µg/mL with S. aureus 1086. The MIC with S. aureus ATCC29213 was ≤ 0.12 µg/mL.
